Read-outs that look alike come from different tables or passages of the source.
Target: T1, sGC enzyme (Homo sapiens, UniProt Q02108+Q02153)
T1 construct: sGC enzyme activity values in HEK cells, determined by the GloSensor assay; host or cells: HEK293 expressing GloSensor 40F cGMP
T1 sequence (Q02153 1-619): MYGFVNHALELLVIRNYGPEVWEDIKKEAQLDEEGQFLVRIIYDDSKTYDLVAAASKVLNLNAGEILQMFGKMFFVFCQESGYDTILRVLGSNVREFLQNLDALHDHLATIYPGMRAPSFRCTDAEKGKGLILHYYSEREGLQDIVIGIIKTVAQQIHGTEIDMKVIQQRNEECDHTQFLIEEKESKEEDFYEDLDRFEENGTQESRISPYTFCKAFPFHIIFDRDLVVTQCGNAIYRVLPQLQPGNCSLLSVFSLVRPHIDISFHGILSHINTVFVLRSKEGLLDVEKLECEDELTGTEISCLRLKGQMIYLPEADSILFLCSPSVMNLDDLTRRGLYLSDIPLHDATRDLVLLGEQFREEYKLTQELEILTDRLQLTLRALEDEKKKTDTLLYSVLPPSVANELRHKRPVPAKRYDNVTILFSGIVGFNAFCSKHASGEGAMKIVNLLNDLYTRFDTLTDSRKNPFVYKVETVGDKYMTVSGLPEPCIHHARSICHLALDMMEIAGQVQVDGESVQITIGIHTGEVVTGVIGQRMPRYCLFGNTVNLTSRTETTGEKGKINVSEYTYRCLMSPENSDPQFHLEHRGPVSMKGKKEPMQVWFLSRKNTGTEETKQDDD
T1 sequence (Q02108 1-690): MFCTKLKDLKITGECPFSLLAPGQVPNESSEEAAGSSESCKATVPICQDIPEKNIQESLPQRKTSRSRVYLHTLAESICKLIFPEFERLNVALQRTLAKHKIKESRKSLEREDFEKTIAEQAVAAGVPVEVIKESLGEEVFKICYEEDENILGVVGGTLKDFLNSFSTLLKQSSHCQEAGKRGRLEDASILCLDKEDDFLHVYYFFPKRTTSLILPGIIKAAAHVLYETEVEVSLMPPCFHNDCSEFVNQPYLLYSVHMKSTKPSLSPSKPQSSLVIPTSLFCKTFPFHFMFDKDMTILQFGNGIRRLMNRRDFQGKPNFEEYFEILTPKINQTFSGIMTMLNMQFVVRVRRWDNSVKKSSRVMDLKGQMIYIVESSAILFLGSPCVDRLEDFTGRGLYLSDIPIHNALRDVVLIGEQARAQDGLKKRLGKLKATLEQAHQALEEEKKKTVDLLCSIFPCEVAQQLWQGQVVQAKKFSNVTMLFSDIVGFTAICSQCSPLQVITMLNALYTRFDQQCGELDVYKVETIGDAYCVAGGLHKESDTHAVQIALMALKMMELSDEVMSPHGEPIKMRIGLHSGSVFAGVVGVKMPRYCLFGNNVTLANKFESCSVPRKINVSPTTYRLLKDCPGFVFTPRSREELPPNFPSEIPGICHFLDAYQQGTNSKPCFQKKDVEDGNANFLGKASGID
Test: cGMP GloSensor cell-based assay, 384-well format
Conditions: for EC50: HEK293 GloSensor 40F cGMP cells, 10 μM DETA-NONOate, read-out: Absolute EC50
Description: Human embryonic kidney cells (HEK293) cells expressing GloSensor™ 40F cGMP (Part No: CS182801, Promega) were used to evaluate the activity of test compounds. The luminescent biosensors (engineered luciferase) that were incorporated into these cells detect cGMP formed by the compounds stimulating the sGC enzyme and emit luminescence.
cGMP GloSensor cells were maintained in Dulbecco's Modification of Eagle's Medium (DMEM) supplemented with fetal bovine serum (FBS, 10% final) and hygromycine (200 ug/ml). The day before assay, cells were plated in DMEM with 10% FBS in a 50 μL volume at a density of 1.5×10^4 cells/well in a poly-D-lysine coated 384-well flat white-bottom plate (Corning Cat. No. 35661). Cells were incubated overnight at 37° C. in a humidified chamber with 5% CO2. The next day, medium was removed and cells were replaced with 40 ul/well of GloSensor™, 2 mM (Promega Cat No E1291). Cells were treated for 90 minutes at 25° C. to allow the substrate to equilibrate in the cells. Test compounds and Diethylenetriamine NONOate (DETA-NONOate) was diluted to 3 mM (20×) in serum-free CO2 independent medium and serially diluted at 4× dilutions to create 5× dose curve from which 10 ul was added to the wells (x μM concentration for test compound solution and 10 μM concentration for DETA-NONOate solution; wherein x is one of the following final concentrations).
For the kinetics studies, luminescence was measured right away for 0.2 sec per well with Envision (Perkin Elmer). For endpoint SAR screening, data were collected after 55 min incubation at room temperature.
Data analysis was carried out as indicated above in Example 2A.
sGC enzyme activity values in HEK cells, determined by the GloSensor assay, expressed as Absolute EC50 which is defined as the concentration at which a given compound elicits 50% of the high control response obtained with Compound Y, after normalization.

EC50 (prodrug) [nM]	EC50 (Parent compound column) [nM]	SMILES	sGC agonism as compared to parent drug (GloSensor assay)
4840		O=P(O)(O)OC(CNc1nc(-c2cc(-c3ccon3)n(Cc3ccccc3F)n2)ncc1F)(C(F)(F)F)C(F)(F)F [Compound I-1]	did not exhibit a high degree of sGC agonism
	72	OC(CNc1nc(-c2cc(-c3ccon3)n(Cc3ccccc3F)n2)ncc1F)(C(F)(F)F)C(F)(F)F [Intermediate 3]	
